Data from patent US5962509A, “Dithiolylidene acetamide derivatives” (SSP Co., Ltd., priority 1997, dated 1999).

Test system: ovolysozyme
Assay: AGE formation inhibitory action: formation of lysozyme dimer (crosslinking) on incubation with xylose, SDS-PAGE with silver staining
Type: biochemical
Details: 1 mg/ml ovolysozyme, 100 mM xylose, pH 7.4 phosphate-buffered saline, 37° C., 21 days; dimer (28.8 Kda) formation relative to control
Procedure: Solutions of the test compound shown in Table 1 in dimethyl sulfoxide, said solutions containing said test compound at various concentrations, were each added together with 1 mg/ml of ovolysozyme and 100 mM of xylose to a phosphate-buffered physiological saline of pH 7.4. Each reaction mixture was then incubated at 37° C. for 21 days. A portion of the reaction mixture, said portion being in a predetermined amount, was then separated by sodium lauryl sulfate-polyacrylamide gel electrophoresis (SDS-PAGE). After the electrophoresis, the gel was treated by silver staining to stain proteins. AGE formation inhibitory action of the test compound was calculated in terms of 50% inhibitory concentration by image-processing and analyzing the degree of formation of the dimer (28.8 Kda) of lysozyme (14.4 Kda) relative to that in a control, that is, a reaction mixture not added with the test compound while making use of NIH Image Ver. 1.55.

| SMILES | AGE formation inhibitory action, 50% inhibitory concentration (IC50) |
| --- | --- |
| CCCN(CCC)C(=O)C(CCC(=O)O)NC(=O)C=C1SC=CS1 (centres unmarked) [Example 1, 5-(dipropylamino)-4-((2-(1,3-dithiol-2-ylidene)acetyl)amino)-5-oxopentanoic acid] | 30 µg/mL |
| NN=C(N)N [Amionoguanidine, aminoguanidine] | 30 µg/mL |
